{"source": "paper PMC12254266", "about": "“Multicolored sequential resonance energy transfer for detection of simultaneous ligand binding at G protein-coupled receptors” (Nature Communications, 2025)", "key": {"FFA1-Nluc [1]": {"molecular_target": "T1, FFA1-Nluc (Homo sapiens, UniProt O14842)", "T1 sequence (O14842 whole entry)": "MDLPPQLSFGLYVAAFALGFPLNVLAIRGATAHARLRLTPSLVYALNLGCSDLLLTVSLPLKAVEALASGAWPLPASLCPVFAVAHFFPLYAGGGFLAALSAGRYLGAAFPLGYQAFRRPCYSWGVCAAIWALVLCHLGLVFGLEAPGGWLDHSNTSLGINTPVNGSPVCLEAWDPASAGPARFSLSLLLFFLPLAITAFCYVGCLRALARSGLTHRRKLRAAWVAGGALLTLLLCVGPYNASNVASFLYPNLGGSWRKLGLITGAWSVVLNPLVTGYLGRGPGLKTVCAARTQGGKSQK", "assay": "Ca2+ mobilisation antagonism of FFA1 agonists (TUG-905, T360) in Flp-In T-REx 293 cells expressing FFA1-Nluc", "type": "cell-based", "design": "expressed in transfected cells", "procedure": "Nluc-FFA1, FFA1-Nluc or untagged FFA1 Flp-In T-REx 293 cells were plated at 50,000 cells per well in poly-D-lysine coated black clear bottom 96-well plates. Cells were then cultured for 24 h until reaching confluency before culture medium was replaced with medium containing 100 ng/mL of doxycycline to induce receptor expression. Cells were cultured for a further 24 h before the assay. On the day of the assay culture medium was removed and replaced with medium containing 3 μM Fura2-AM Ca^2+ dye. […] Fura2 fluorescent emission at 520 nm following excitation with each of 340 and 380 nm was measured in regular intervals both before and after adding test compounds for a total of 90 s per well. Calcium responses were determined by taking the peak 340/380 ratio after first subtracting the ratios obtained prior to addition of test compound. […]\nCa2+ mobilization responses were measured in\nFlp-In T-REx 293 cells expressing FFA1-Nluc. Ca2+ responses to increasing concentrations\npre-treated with 10 μM PPTQ. The mode of antagonism for PPTQ was assessed by\nN=3 (A-D, F, H) or N=4 (E, G) independent experiments. S ource data are provided as a […]"}, "FFA1-Nluc [2]": {"molecular_target": "T1, FFA1-Nluc", "assay": "DISCo-BRET (endpoint, spectra scan, kinetics) with TUG-2591 and TUG-2597 at C terminal Nluc tagged FFA1", "type": "binding", "design": "expressed in transfected cells", "conditions": "for Specific BRET (690/540), % of control: Figure 4Aiii; for Specific BRET (690/540), % of control / Specific BRET (540/450), % of control: single replicate values (technical duplicate); for Specific BRET (540/450), % of control: Figure 4Biii", "outline": "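After Nano-Glo substrate (1:800 final), ligand-treated FFA1-Nluc or Nluc-FFA1 cells, doxycycline-induced (100 ng/mL), were read. Kinetic association/dissociation runs were at 25 °C; endpoint and 440–740 nm spectra came after 5 min at 37 °C. Non-specific signal came from competing ligands at high concentration.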"}, "FFA1-Nluc [3]": {"molecular_target": "T1, FFA1-Nluc", "assay": "NanoBRET binding (saturation, kinetics) at C terminal Nluc tagged FFA1", "design": "expressed in transfected cells", "conditions": "Sup Fig 7B", "procedure": "(§1) Nluc-FFA1 or FFA1-Nluc Flp-In T-REx 293 cells were plated at 50,000 cells per well in poly-D-lysine coated white 96-well plates. Cells were cultured for 24 h in the plate before medium was replaced with medium containing 100 ng/mL of doxycycline to induce receptor expression. After culturing for a further 24 h, medium was removed, cells were washed with HBSS and incubated in HBSS for 30 min. To start the assay, NanoGlo substrate (Promega, N1110) was added to the cells at a 1:800 final dilution and incubated for 10 min at 37 °C. For endpoint assays, including both saturation and competition binding, test ligands were then added, including both fluorescent and unlabelled competing ligands as indicated, and plates incubated for a further 5 min at 37 °C. NanoBRET was then quantified in a CLARIOstar microplate reader (BMG Labtech) by measuring luminescent emission with the monochrometer set for the Nluc donor at 450–60 nm, and acceptor luminescent emission 540–60 nm (NBD), 600–80 nm (Cy3.5) or 690–100 nm (SulfoCy5), depending on which fluorophore was being tested. The acceptor/donor BRET ratio was then taken as a measure of fluorophore binding. For kinetic on then off NanoBRET experiments plates were washed the same way and substrate was added to the same concentration. However, 10 min after substrate was added plates were inserted into the CLARIOstar microplate reader set to 25 °C to take repeated measurements of luminescent emission for both the donor and the acceptor fluorophore being used. After 5 min of background measurements, the indicated concentration of fluorescent ligand was added using the plate reader injector and luminescent emission was monitored for ~10 min before the reader was paused to manually add a high concentration of appropriate competing ligand to initiate dissociation. The plate was returned to the reader and luminescence measurements were continued for a further 30 min to monitor dissociation of the fluorescent ligand. For kinetic experiments using multiple concentrations of fluorescent ligand, cells were placed in the plate reader immediately after the addition of Nano-Glo substrate and luminescent measurements were taken. After 5 min, the reader was paused to add the indicated concentrations of fluorescent ligand, before measurements were continued. To set non-specific binding for kinetic experiments, the indicated competing ligand was added 5 min before the addition of the fluorescent ligand."}, "Nluc-FFA1": {"molecular_target": "T2, Nluc-FFA1 (Homo sapiens, UniProt O14842)", "T2 construct": "expressed in transfected cells", "T2 sequence (O14842 whole entry)": "as above", "assay": "NanoBRET binding (saturation, competition, kinetics) at N terminal Nluc tagged FFA1", "conditions": "footnotes of Supplementary Table 3; read-out: Kd values obtained in NanoBRET saturation experiments (used for pKi) (converted)", "procedure": "as §1"}}, "note": "Several values for one entry are separate records, joined by “and”; a condition that tells them apart may be missing. Equal values may be shown once."}
{"molecule": "CCCN1C(=O)c2ccccc2[C@@H](C(=O)O)[C@@H]1c1ccc(OCc2cccc(-c3ccc(OCCCS(C)(=O)=O)cc3C)c2)cc1", "note": "(racemic) [TUG-2745]", "values": [{"measurement": "antagonism of site one agonist (TUG-905) Ca2+ response", "setting": "FFA1-Nluc [1]; in words", "result": "inhibits signalling from site one"}, {"measurement": "Ca2% Response (%)", "setting": "FFA1-Nluc [1]; response to log[T360] -5 in presence of TUG-2745, Sup Fig 6H", "result": "90.24% and 94.14% and 97.83% and 85.85% and 108.28% and 87.68%"}, {"measurement": "Ca2% Response (%)", "setting": "FFA1-Nluc [1]; response to log[T360] -6 in presence of TUG-2745, Sup Fig 6H", "result": "106.53% and 104.17% and 101.28% and 97.48% and 114.91% and 110.38%"}, {"measurement": "Ca2% Response (%)", "setting": "FFA1-Nluc [1]; response to log[T360] -8 in presence of TUG-2745, Sup Fig 6H", "result": "5.16% and 2.24% and -0.89% and 3.26% and 3.57% and -0.49%"}, {"measurement": "Ca2% Response (%)", "setting": "FFA1-Nluc [1]; response to log[T360] -9 in presence of TUG-2745, Sup Fig 6H", "result": "-1.82% and 2.64% and 1.16% and 1.84% and 0.35% and 1.32%"}, {"measurement": "Ca2% Response (%)", "setting": "FFA1-Nluc [1]; response to log[T360] -10 in presence of TUG-2745, Sup Fig 6H", "result": "-0.06% and 1.71% and 3.56% and 4.07% and 1.54% and 0.19%"}, {"measurement": "Ca2% Response (%)", "setting": "FFA1-Nluc [1]; response to log[T360] -11 in presence of TUG-2745, Sup Fig 6H", "result": "2.74% and 2.14% and 3.49% and 1.57% and 6.13% and -0.07%"}, {"measurement": "Ca2% Response (%)", "setting": "FFA1-Nluc [1]; response to log[TUG-905] -5 in presence of TUG-2745, Sup Fig 6G", "result": "59.62% and 66.91% and 76.48% and 82.73% and 94.09% and 86.41%"}, {"measurement": "pIC50 DISCo-BRET SulfoCy5/NBD", "setting": "FFA1-Nluc [2]; 100 nM TUG-2591 and […] TUG-2597, one site model, NC = No competition", "result": "6.0±0.06"}, {"measurement": "Specific BRET (690/540), % of control", "setting": "FFA1-Nluc [2]; log[Ligand] -5", "result": "0.92 % of control and 2.39 % of control and -9.90 % of control and -8.10 % of control and -2.12 % of control and -2.60 % of control and -5.52 % of control and -2.17 % of control"}, {"measurement": "Specific BRET (540/450), % of control", "setting": "FFA1-Nluc [2]; log[Ligand] -5", "result": "155.62 % of control and 107.52 % of control and 117.08 % of control and 99.92 % of control and 108.86 % of control and 92.88 % of control and 108.34 % of control"}, {"measurement": "Specific BRET (690/540), % of control", "setting": "FFA1-Nluc [2]; log[Ligand] -5.5", "result": "19.71 % of control and 24.68 % of control and 5.40 % of control and 1.46 % of control and 18.78 % of control and 3.37 % of control and 12.72 % of control and 3.96 % of control"}, {"measurement": "Specific BRET (540/450), % of control", "setting": "FFA1-Nluc [2]; log[Ligand] -5.5", "result": "128.42 % of control and 65.71 % of control and 109.72 % of control and 87.17 % of control and 104.75 % of control and 74.68 % of control and 117.49 % of control"}, {"measurement": "Specific BRET (690/540), % of control", "setting": "FFA1-Nluc [2]; log[Ligand] -6", "result": "43.09 % of control and 64.83 % of control and 36.45 % of control and 38.47 % of control and 45.84 % of control and 53.64 % of control and 35.79 % of control and 29.99 % of control"}, {"measurement": "Specific BRET (540/450), % of control", "setting": "FFA1-Nluc [2]; log[Ligand] -6", "result": "103.22 % of control and 89.76 % of control and 90.60 % of control and 69.85 % of control and 83.23 % of control and 146.81 % of control"}, {"measurement": "Specific BRET (690/540), % of control", "setting": "FFA1-Nluc [2]; log[Ligand] -6.5", "result": "78.64 % of control and 74.49 % of control and 82.00 % of control and 53.43 % of control and 70.00 % of control and 66.92 % of control and 69.40 % of control and 69.25 % of control"}, {"measurement": "Specific BRET (540/450), % of control", "setting": "FFA1-Nluc [2]; log[Ligand] -6.5", "result": "86.61 % of control and 51.40 % of control and 85.70 % of control and 71.65 % of control and 68.99 % of control"}, {"measurement": "Specific BRET (690/540), % of control", "setting": "FFA1-Nluc [2]; log[Ligand] -7", "result": "89.69 % of control and 92.82 % of control and 101.91 % of control and 88.41 % of control and 100.24 % of control and 95.91 % of control and 89.88 % of control and 95.21 % of control"}, {"measurement": "Specific BRET (540/450), % of control", "setting": "FFA1-Nluc [2]; log[Ligand] -7", "result": "100.64 % of control and 40.23 % of control and 87.50 % of control and 76.88 % of control and 80.22 % of control and 64.08 % of control and 139.58 % of control"}, {"measurement": "Specific BRET (690/540), % of control", "setting": "FFA1-Nluc [2]; log[Ligand] -8", "result": "95.21 % of control and 98.62 % of control and 92.91 % of control and 107.54 % of control and 94.56 % of control and 87.72 % of control and 98.50 % of control and 104.07 % of control"}, {"measurement": "Specific BRET (540/450), % of control", "setting": "FFA1-Nluc [2]; log[Ligand] -8", "result": "82.89 % of control and 76.59 % of control and 92.89 % of control and 70.83 % of control and 83.23 % of control and 65.66 % of control and 122.27 % of control"}, {"measurement": "Specific BRET (690/540), % of control", "setting": "FFA1-Nluc [2]; log[Ligand] -9", "result": "101.38 % of control and 98.62 % of control and 102.14 % of control and 95.05 % of control and 103.71 % of control and 93.98 % of control"}, {"measurement": "Specific BRET (540/450), % of control", "setting": "FFA1-Nluc [2]; log[Ligand] -9", "result": "57.41 % of control and 46.53 % of control and 87.83 % of control and 70.67 % of control and 68.35 % of control and 75.16 % of control and 107.46 % of control"}, {"measurement": "'bottom' of the IC50 curve, DISCo-BRET SulfoCy5/NBD", "setting": "FFA1-Nluc [2]; percentage of binding obtained in the absence of competing ligand, 100 nM TUG-2591 and […] TUG-2597", "result": -15, "unit": "%"}, {"measurement": "pKi DISCo-BRET SulfoCy5/NBD", "setting": "FFA1-Nluc [2]; using Kd TUG-2591 57 nM", "result": "6.4±0.06"}]}
{"molecule": "CCCN1C(=O)c2ccccc2[C@@H](C(=O)O)[C@@H]1c1ccc(OCc2cccc(-c3ccc(OCCOCCNc4ccc([N+](=O)[O-])c5nonc45)cc3C)c2)cc1", "note": "[TUG-2884]", "values": [{"measurement": "Specific BRET (%)", "setting": "FFA1-Nluc [3]; [TUG-2884] 1 μM", "result": "60.2367% and 75.4193% and 48.9635% and 51.5087% and 65.0111% and 65.7411%"}, {"measurement": "Specific BRET (%)", "setting": "FFA1-Nluc [3]; [TUG-2884] 2 μM", "result": "98.0293% and 80.378% and 57.5363% and 68.9417% and 80.7303% and 88.1476%"}, {"measurement": "Specific BRET (%)", "setting": "FFA1-Nluc [3]; [TUG-2884] 4 μM, technical duplicates", "result": "96.6176% and 103.382%"}, {"measurement": "Kd", "setting": "Nluc-FFA1", "result": 940, "unit": "nM"}]}
